Where two headings read alike, the source gives them in different places.
Tests used:
[1] = biological target: T1, thymidylate synthase (TS) (Homo sapiens, UniProt P04818); assay: Thymidylate synthase activity in treated Hep G2 cells; assay type: cell-based; conditions: 1 μM, 96 hrs post treatment
T1 construct: endogenous in cells; host or cells: Hep G2
Procedure: Briefly, 10^5 Hep G2 or TSU cells were grown in culture for 48 h and then the medium was made to a concentration of 1 μM with either po 1-mer or unconjugated 5FdU. At regular intervals (24 hrs, 48 hrs, 72 hrs and 96 hrs) after treatment, the medium was removed and replaced with medium containing deoxyuridine/[^3H]-deoxyuridine mixtures. Cells were incubated at 37° C. for 30 min. Cell medium was then removed and precipitated with charcoal. The supernatant was then counted to determine the presence of [^3H]-H2O. The measurable release of [^3H] as [^3H]-H2O from deoxyuridine, 5′-monophosphate (dUMP) substrate reflects thymidylate synthase activity.

[2] = biological target: T2, thymidylate synthetase (TS) (Mus musculus, UniProt P07607); assay: Thymidylate synthetase activity in mouse liver extract ([5-3H]-dUMP tritium release); assay type: biochemical, CD-1 mouse
T2 construct: from tissue; host or cells: CD-1 mouse liver, supernatant of homogenate
T2 sequence (P07607 whole entry): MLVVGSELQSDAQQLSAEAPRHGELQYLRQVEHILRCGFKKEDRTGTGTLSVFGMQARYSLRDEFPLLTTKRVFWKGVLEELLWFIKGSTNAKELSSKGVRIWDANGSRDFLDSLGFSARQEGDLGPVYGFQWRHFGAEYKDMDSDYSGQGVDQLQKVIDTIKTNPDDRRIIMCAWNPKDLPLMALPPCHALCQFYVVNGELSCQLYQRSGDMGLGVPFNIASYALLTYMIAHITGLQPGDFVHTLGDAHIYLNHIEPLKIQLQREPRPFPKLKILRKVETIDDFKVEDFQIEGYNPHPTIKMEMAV
Procedure: A CD-1 mouse (Charles River, Wilmington, Mass.) was sacrificed and the liver removed. Approximately one gram of the tissue was subsequently washed in DPBS (Mediatech, Herndon, Va.) and placed in 3 volumes of buffer H. The tissue was then homogenized with a Dounce homogenizer and subsequently sonicated by three 15-second bursts followed by 1 min on ice. The tissue extract was then centrifuged for 10 min at 4,000 g and the resultant supernatant was spun for 20 min at 7,000 g. Three equal aliquots of this supernatant were then added to 0.9 μCi aliquots of 2′-Deoxyuridine 5′-monophosphate, diammonium salt, [5-^3H]. At this point, 5-Fluoro-2′-deoxyuridine 5′-monothiophosphate was added to one aliquot, 5-Fluoro-2′-deoxyuridine 5′-monophosphate was added to a second aliquot, and one aliquot was left untreated. The three samples were incubated at 37° C. for 30 min and precipitated with charcoal. The resultant supernatant was centrifuged at 1,600 g for 10 min. Aliquots of each sample were then counted using a Beckman scintillation counter. Percent (%) inhibition is expressed as follows: […]
These assays determined the ability of either 10 nM FdUMP (phosphodiester substrate) or FdUMPS (phosphorothioate substrate) to inhibit thymidylate synthetase (TS) activity. The objective of this assay was to determine the ability of TS to convert [5-^3H]-dUMP to ^3H-H2O.

Hep G2 cells = assay: Cellular uptake of 5FU 1-mer conjugates by Hep G2 cells; assay type: cell-based, human; conditions: 1 μM, 480 min
Procedure: Hep G2 cells were passaged into 2 cm^2 wells and grown in RPMI 1640 medium, which was supplemented with L-glutamine (10-040, CV) to a density of 0.3×10^6 to 0.4×10^6 cells per well (48-well cluster plate, Costar, Cambridge, Mass.). […] Then, an aliquot of the medium was saved for scintillation counting and the remainder of the medium aspirated from the well. The cells were washed with D-PBS (2×0.5 ml), treated with 0.25% trypsin (37° C., 2 minutes; trypsin prepared in HBSS with 1.0 mM EDTA) and suspended in fresh growth medium containing 10% FCS. The suspended cells were layered over silicon oil (0.5 ml) in a 1.7 ml conical microcentrifuge tube and pelleted by centrifugation at 14,000 rpm (12,000 g) for 30 seconds. The supernatant was carefully decanted and the cell pellet was lysed with 100 μl of a solution containing 0.5% NP 40, 100 mM sodium chloride, 14 mM Tris/HCl and 30% acetonitrile. The amount of radioactivity, and by inference the amount of neoglycoconjugate or oligomer associated with the cell lysate, was determined by scintillation counting.

[3] = Stability of 1-mer conjugates in RPMI 1640+10% FCS (PAGE); assay type: in vitro ADME; conditions: up to 8 hrs, PAGE analysis
Procedure: Initially, the stability of the two neoglycoconjugates was assessed in RPMI 1640+10% FCS. […] In terms of cellular uptake, the po-linked conjugate at a dose of 1 μM was taken up rapidly in a progressive manner by Hep G2 cells in vitro to the extent of 24.75 pmoles/10^6 cells at 480 min. The rate of cellular uptake was next analyzed with respect to the administered dose of the conjugate. […] This amount doubled within the next 30 min and peaked at 25 pmoles/million cells at 480 min. […] While the administration of 4 μM conjugate led to a linear increase of conjugate uptake with respect to time, the rate at which cellular uptake occurred upon the administration of 8 μM conjugate rose sharply at 120 min.
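Throughout, for % injected dose in BLADDER: male CD-1 mice given radiolabeled test agent intravenously, organs removed at each time point and dissolved, radioactivity per organ measured by scintillation counting with efficiency correction.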
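Throughout, for % injected dose in BLOOD: male CD-1 mice given radiolabeled test agent intravenously, organs removed at each time point and dissolved, radioactivity per organ measured by scintillation counting with efficiency correction.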
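Throughout, for % injected dose in HEART: male CD-1 mice given radiolabeled test agent intravenously, organs removed at each time point and dissolved, radioactivity per organ measured by scintillation counting with efficiency correction.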
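Throughout, for % injected dose in KIDNEY: male CD-1 mice given radiolabeled test agent intravenously, organs removed at each time point and dissolved, radioactivity per organ measured by scintillation counting with efficiency correction.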

T1 sequence (P04818 2-313 limits assumed): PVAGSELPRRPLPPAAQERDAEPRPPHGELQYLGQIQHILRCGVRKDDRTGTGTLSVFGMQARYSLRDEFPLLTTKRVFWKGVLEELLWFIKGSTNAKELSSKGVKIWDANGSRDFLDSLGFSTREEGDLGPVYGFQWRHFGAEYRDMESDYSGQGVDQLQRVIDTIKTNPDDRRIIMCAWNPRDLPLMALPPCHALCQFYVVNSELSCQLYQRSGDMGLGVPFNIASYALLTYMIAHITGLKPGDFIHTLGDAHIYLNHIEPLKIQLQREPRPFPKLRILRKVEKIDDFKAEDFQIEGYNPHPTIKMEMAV

O=c1[nH]c(=O)n([C@H]2C[C@H](O)[C@@H](CO)O2)cc1F [5FdU, 5-fluoro-2′-deoxyuridine]
reduction of TS activity [1]: approximately 20%
% injected dose in BLADDER (15 MIN after tail vein i.v.): 0.91 ± 0.07%
% injected dose in BLOOD (15 MIN after tail vein i.v.): 0.03 ± 0.02%
% injected dose in HEART (15 MIN after tail vein i.v.): 0.21 ± 0.13%
% injected dose in KIDNEY (15 MIN after tail vein i.v.): 0.42 ± 0.28%
% injected dose in LG INT (15 MIN after tail vein i.v.): 1.09 ± 0.25%
% injected dose in LIVER (15 MIN after tail vein i.v.): 9.56 ± 3.83%
% injected dose in LUNGS (15 MIN after tail vein i.v.): 0.17 ± 0.07%
% injected dose in MUSCLE (15 MIN after tail vein i.v.): 9.29 ± 4.9%
% injected dose in SM INT (15 MIN after tail vein i.v.): 0.7 ± 0.04%
% injected dose in SPLEEN (15 MIN after tail vein i.v.): 0.11 ± 0.044%
% injected dose in LIVER (15 MIN after tail vein i.v., listed as unconjugated 5FdU): less than 10%
% injected dose in BLADDER (30 MIN after tail vein i.v.): 2.3 ± 1.58%
% injected dose in BLOOD (30 MIN after tail vein i.v.): .008 ± .0025%
% injected dose in HEART (30 MIN after tail vein i.v.): 0.03 ± .004%
% injected dose in KIDNEY (30 MIN after tail vein i.v.): 0.38 ± 0.3%
% injected dose in LG INT (30 MIN after tail vein i.v.): 0.37 ± 0.19%
% injected dose in LIVER (30 MIN after tail vein i.v.): 8.8 ± 1.23%
% injected dose in LUNGS (30 MIN after tail vein i.v.): 0.05 ± 0.006%
% injected dose in MUSCLE (30 MIN after tail vein i.v.): 3.43 ± 1.06%
% injected dose in SM INT (30 MIN after tail vein i.v.): 0.61 ± 0.36%
% injected dose in SPLEEN (30 MIN after tail vein i.v.): 0.19 ± 0.26%
% injected dose in BLADDER (60 MIN after tail vein i.v.): 2.99 ± 1.01%
% injected dose in BLOOD (60 MIN after tail vein i.v.): .007 ± .0023%
% injected dose in HEART (60 MIN after tail vein i.v.): 0.28 ± 0.11%
% injected dose in KIDNEY (60 MIN after tail vein i.v.): 0.84 ± 0.31%
% injected dose in LG INT (60 MIN after tail vein i.v.): 1.04 ± 0.2%
% injected dose in LIVER (60 MIN after tail vein i.v.): 4.35 ± 1.35%
% injected dose in LUNGS (60 MIN after tail vein i.v.): 0.98 ± 0.3%
% injected dose in MUSCLE (60 MIN after tail vein i.v.): 22.84%
% injected dose in SM INT (60 MIN after tail vein i.v.): 3.57 ± 1.3%
% injected dose in SPLEEN (60 MIN after tail vein i.v.): 0.57 ± 0.18%
% injected dose in BLADDER (240 MIN after tail vein i.v.): 0.010 ± .015%
% injected dose in BLOOD (240 MIN after tail vein i.v.): 0.56 ± 0.28%
% injected dose in HEART (240 MIN after tail vein i.v.): 0.32 ± 0.10%
% injected dose in KIDNEY (240 MIN after tail vein i.v.): 0.44 ± 0.12%
% injected dose in LG INT (240 MIN after tail vein i.v.): 1.61 ± 0.59%
% injected dose in LIVER (240 MIN after tail vein i.v.): 3.97 ± 0.37%
% injected dose in LUNGS (240 MIN after tail vein i.v.): 1.03 ± 0.39%
% injected dose in MUSCLE (240 MIN after tail vein i.v.): 46.56%
% injected dose in SM INT (240 MIN after tail vein i.v.): 4.19 ± 1.18%
% injected dose in SPLEEN (240 MIN after tail vein i.v.): 0.38 ± 0.04%
% injected dose in BLADDER (480 MIN after tail vein i.v.): .001 ± .0006%
% injected dose in BLOOD (480 MIN after tail vein i.v.): 0.23 ± 0.14%
% injected dose in HEART (480 MIN after tail vein i.v.): 0.06 ± .02%
% injected dose in KIDNEY (480 MIN after tail vein i.v.): 0.13 ± .044%
% injected dose in LG INT (480 MIN after tail vein i.v.): 0.35 ± 0.09%
% injected dose in LIVER (480 MIN after tail vein i.v.): 1.25 ± 0.33%
% injected dose in LUNGS (480 MIN after tail vein i.v.): 0.08 ± 0.04%
% injected dose in MUSCLE (480 MIN after tail vein i.v.): 7.9 ± 1.64%
% injected dose in SM INT (480 MIN after tail vein i.v.): 1.37 ± 0.7%
% injected dose in SPLEEN (480 MIN after tail vein i.v.): 0.09 ± 0.05%

O=c1[nH]c(=O)n([C@H]2C[C@H](O)[C@@H](COP(=O)(O)O)O2)cc1F [FdUMP, 5-Fluoro-2′-deoxyuridine 5′-monophosphate]
biological activity relative to FdUMPS ([2]; 10 nM): approximately twice
inhibition at 0.01 µM ([2]; 10 nM inhibitor, 1 μM dUMP, read-out: Percent Inhibition of Thymidylate Synthetase Activity): 48%
inhibition at 0.01 µM ([2]; 10 nM inhibitor, 10 μM dUMP, read-out: Percent Inhibition of Thymidylate Synthetase Activity): 28%

O=c1[nH]c(=O)n([C@H]2C[C@H](O)[C@@H](COP(O)(O)=S)O2)cc1F [FdUMPS, 5-Fluoro-2′-deoxyuridine 5′-monothiophosphate]
inhibition at 0.01 µM ([2]; read-out: Percent Inhibition of Thymidylate Synthetase Activity, 10 nM inhibitor, 1 μM dUMP): 27%
inhibition at 0.01 µM ([2]; read-out: Percent Inhibition of Thymidylate Synthetase Activity, 10 nM inhibitor, 10 μM dUMP): 13%

CC(=O)N[C@H]1[C@H](OCCCCCCNC(=O)CC[C@H](NC(=O)CC[C@H](NC(=O)[C@H](Cc2ccc(O)cc2)NC(=O)C2CCC(CN3C(=O)CC(SCCCCCCOP(O)(=S)OC[C@H]4O[C@@H](n5cc(F)c(=O)[nH]c5=O)C[C@@H]4O)C3=O)CC2)C(=O)NCCCCCCO[C@@H]2O[C@H](CO)[C@H](O)[C@H](O)[C@H]2NC(C)=O)C(=O)NCCCCCCO[C@@H]2O[C@H](CO)[C@H](O)[C@H](O)[C@H]2NC(C)=O)O[C@H](CO)[C@H](O)[C@@H]1O (some centres unmarked) [ps 1-mer, YEE(ahGalNAc)3-SMCC-psFU]
cellular uptake (Hep G2 cells): 24.98 pmoles/10^6 cells
stability in media containing 10% FCS [3]: stable

Source: patent US7262177B2, “Conjugates of glycosylated/galactosylated peptide, bifunctional linker, and nucleotidic monomers/polymers, and related compositions and methods of use” (priority 2000, dated 2007)
